Source: patent US6977254B2, “Hydroxy cyclohexenyl phenyl carboxamides tocolytic oxytocin receptor antagonists” (Wyeth, priority 2001, dated 2005)

Biological target: T1, human V2 vasopressin receptor subtype (Homo sapiens, UniProt P30518)
T1 construct: host or cells: CHO cells, stably transfected (pZeoSV vector); membranes
Experiment: Vasopressin binding in CHO cell membranes expressing human vasopressin V2 subtype receptors ([3H]arginine vasopressin)
Details: 100 nM, value without parentheses
Description: Vasopressin Binding in Chinese Hamster Ovary Cell Membranes Expressing Human Vasopressin V2 Subtype Receptors
Chinese Hamster Ovary (CHO) cells stably transfected with the human V2 subtype receptors were obtained from M. Thibonnier, Case Western Reserve University School of Medicine, Cleveland, Ohio.
A. Passaging and Amplification of Cells:
CHO cells transfected with the human vasopressin V2 subtype receptors obtained from M. Thibonnier (pZeoSV vector) are allowed to grow to confluency (approx. >90%) in T-150 flasks under sterile conditions, in a cell culture medium of F-12 Nutrient Mixture (HAM) with L-glutamine (Gibco Cat. #11765-054) containing 15 mM HEPES (Gibco Cat. #15630-080), 1% antibiotic/antimycotic (add 5 mL 100×, Gibco Cat. #15240-062 per 500 mL F-12), 250 μg/mL Zeocin (add 1.25 mL of 100 mg/mL Invitrogen R-250-01 per 500 mL F-12) and 10% Fetal Bovine Serum (Qualified, heat inactivated, Gibco Cat. #16140-063). The medium is removed by aspiration and the cells washed with 10 mL of Hank's Balanced Salt solution (Gibco Cat. #14175-095). The salt solution is removed by aspiration and the cells trypsinized with 5 mL of trypsin-EDTA (0.05% trypsin, 0.53 mM EDTA-4Na, Gibco Cat. #25300-070) for 1 min. The trypsin is removed by aspiration and the cells dislodged by tapping. Cell Culture medium (e.g. 30 mL for 1:30 split) is immediately added and mixed well to inactivate trypsin. 1 mL of detached cells is added to new culture flasks containing fresh Cell Culture medium (e.g. into 25 mL per T-150 flask), and mixed gently. The cells are incubated at 37° C. in 5% CO2. The medium is changed at 3 to 4 day interval (or as appropriate). The cells grow to confluency (approx. >75%-95%) within 7-8 days. All steps are done under sterile conditions.
The cells are washed twice gently with Hank's Balanced Salt solution (e.g. use 10 mL per T-150 flask). The excess solution is removed and the cells bathed for 15-30 min. in an enzyme-free Cell Dissociation Buffer (e.g. use 8 mL Hank's Based, Gibco Cat. #13150-016 per T-150 flask) until cells are loosened. The contents are transferred to centrifuge tubes (50 mL size) kept in ice bath. All subsequent steps are done at 4° C. The tubes are centrifuged at 300×g for 15 min (1380 rpm on SORVAL, Model RT6000D, using rotor for 50 mL tubes). The supernatant is discarded and the cells suspended in homogeneizing buffer(10 mM Tris-HCl containing 0.25 M sucrose and 1 mM EDTA, pH 7.4) ensuring that the volume of the buffer is about ten times the volume of the cell pellet. The cells are pooled into a centrifuge tube (50 mL) and homogenized with Polytron at setting 6 for 10 sec. The homogenate is transferred into a Potter-Elvjehm homogeneizer and homogenized with 3 strokes. The homogenate is centrifuged at 1500×g for 60 min at 4° C. (3100 rpm using SORVAL, model RT6000D, using rotor for 50 mL tubes). The pellet is discarded. The supernatant is centrifuged at 100,000×g for 60 min. at 4° C. (Beckman L8-80M ultracentrifuge; spin at 37,500 rpm with rotor type 70 Ti for 50 mL tubes; 38,000 rpm with type 80Ti for 15 mL tubes; or 35,800 rpm with rotor type 45Ti). The supernantant is discarded and the pellet suspended in 3 to 4 mL of Tris buffer (50 mM TRIS-HCl, pH 7.4). The protein content is estimated by the Bradford or Lowry method. The volume of the membrane suspension is adjusted with the membrane buffer (50 mM Tris-HCl containing 0.1% BSA and 0.1 mM PMSF) to give 3.0 mg/mL (or as appropriate) of protein. The membranes are aliquoted and stored at −70° C.
C. Radioligand Binding Assay:
In wells of a 96-well format microtiter plate, is added 90, 110 or 130 μL (to make up a final volume of 200 μL) of assay buffer containing 50 mM of Tris-HCl (pH 7.4), […], 1 mg % aprotinin, 1 mg % leupeptin, 2 mg % 1,10-phenanthroline, 10 mg % trypsin inhibitor, and 0.1 mM PMSF. The inhibitors are added on the day of the experiment. […]

T1 sequence (P30518 whole entry): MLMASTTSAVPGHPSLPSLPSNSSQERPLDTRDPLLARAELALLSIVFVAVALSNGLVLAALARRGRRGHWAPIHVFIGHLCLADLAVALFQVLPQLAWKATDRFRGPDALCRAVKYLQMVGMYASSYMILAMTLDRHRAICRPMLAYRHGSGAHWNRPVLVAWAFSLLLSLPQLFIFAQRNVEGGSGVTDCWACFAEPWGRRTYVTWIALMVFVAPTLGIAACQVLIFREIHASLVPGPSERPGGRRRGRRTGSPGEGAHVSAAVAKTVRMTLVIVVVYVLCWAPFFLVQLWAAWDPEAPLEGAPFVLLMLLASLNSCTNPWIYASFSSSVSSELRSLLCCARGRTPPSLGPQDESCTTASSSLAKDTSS

Row | SMILES | V2 % inhibition @ 100 nM [%]
1 | Cc1cc(C(=O)N2Cc3ccc(C(=O)N(CCO)CCO)n3Cc3ccccc32)ccc1C1=CCCc2ccccc21 [Example 16, {10-[4-(3,4-Dihydro-naphthalen-1-yl)-3-methyl-benzoyl]-10,11-dihydro-5H-pyrrolo[2,1-c][1,4]benzodiazepin-3-yl}-3-carboxylic acid bis-(2-hydroxy-ethyl)-amide] | 46
2 | Cc1cc(C(=O)N2Cc3ccc(C(=O)N4CCN(CCO)CC4)n3Cc3ccccc32)ccc1C1=CCCCC1 [Example 17, {10-[4-(1-Cyclohex-1-en-1-yl)-3-methylbenzoyl]-10,11-dihydro-5H-pyrrolo[2,1-c][1,4]benzodiazepin-3-yl}[4-(2-hydroxyethyl)-1-piperazinyl]methanone] | 7
